Data as given in patent publication US20070128139A1, “Hair treatment compositions comprising hydroxy comopounds” (priority 2002, published 2007).

Assay: cuticle abrasion test (hair washed with shampoo test composition, blended, cuticle recovered and weighed)
Conditions: freeze-dried cuticle weighed back after abrasion; 0.03M compound in base shampoo; 4 g hair washed twice in 0.4 g test composition; lower = less cuticle loss
Description: A base shampoo composition was prepared, comprising 12 wt % sodium lauryl ether sulphate (2EO), […] cocoamidopropyl betaine and 86 wt. % water.
To this base solution 0.03M of the following compounds was added:
The compositions were tested in a cuticle abrasion test. Root end hair (as received form the supplier) was pre-cleaned by washing for 1 minute in Composition I followed by copious rinsing in double deionised water. The hair was left to dry naturally over 24 hrs.
For each test, 4 g of hair was washed in 0.4 g of the test composition for 30 seconds, rinsed for 30 seconds, and the washing/rinsing cycle repeated. The hair was left to dry naturally overnight.
The hair was cut into 1 cm lengths, placed in a blender bucket and 200 ml of double de-ionized water was added. The blender was placed on full power for 1 minute. The liquor was decanted off and transferred to a 50 ml centrifuge tube and centrifuged for 10 minutes at 4,300 RPM. The resulting clear liquor was decanted off leaving the cuticle sediment at the bottom of the tube.
The cuticle was transferred from the tube into a beaker with 3×5 ml washes and passed through a series of sieves (425 and 53 microns). The sieves were washed with a further 2×10 ml of water to ensure complete recovery of the cuticle. The sample was made up to 50 ml in a centrifuge tube, centrifuged for 15 minutes and the liquor decanted off. The cuticle was transferred with double deionised water (2×10 ml washes) to a beaker and freeze-dried.
The freeze-dried cuticle was weighed back to determine percentage recovery.

Point of comparison: `CCCCCC(C)(C)O` [Example 2, 2-methyl-2-heptanol], “% recovery” value 0.54%. Against it:
- CC(C)CC(C)O (stereo not drawn) [C, 4-methyl-2-pentanol, reference compound] — higher, 0.79%
- CCCCC(O)C(C)C (stereo not drawn) [Example 3, 2-methyl-3-heptanol] — higher, 0.55%
- CCCCC(C)(C)O [Example 1, 2-methyl-2-hexanol] — lower, 0.53%
- CCCC(C)CO (stereo not drawn) [Example 7, 2-methyl-1-pentanol] — higher, 0.64%
- CCC(C)(O)CCCC(C)C (stereo not drawn) [B, 3,7-dimethyl-3-octanol, reference compound] — higher, 0.84%
- CCCC(C)(C)O [Example 4, 2-methyl-2-pentanol] — higher, 0.58%
- CCCC(C)(O)CC(C)C (stereo not drawn) [Example A, 2,4-dimethyl-4-heptanol, reference compound] — higher, 0.84%
- CCC(C)C(C)O (stereo not drawn) [Example 6, 3-methyl-2-pentanol] — higher, 0.62%
